Source: ChEMBL document CHEMBL1201862, “PubChem BioAssay data set” (2004)
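Exposure lasted 48 hours, with cells grown in 96-well plates and compounds tested at five concentrations. The concentration for 50% growth inhibition is given as GI50.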 The source made the active and inactive calls. Rule as the data show it: active = GI50 up to about 1.1 µM and inactive = higher.

Tests used:
Test in all cases: DTP human tumour cell line panel, 48 h
HOP-18 = test system: HOP-18
M19-MEL = test system: M19-MEL
DLD-1 = test system: DLD-1
LXFL 529 = test system: LXFL 529
KM-20L2 = test system: KM-20L2
XF498 = test system: XF498
SNB-78 = test system: SNB-78
DMS-114 = test system: DMS-114
RXF 631 = test system: RXF 631

SMILES | GI50 (HOP-18) | GI50 (M19-MEL) | GI50 (DLD-1) | GI50 (LXFL 529) | GI50 (KM-20L2) | GI50 (XF498) | GI50 (SNB-78) | GI50 (DMS-114) | GI50 (RXF 631)
COc1ccc(C2S/C(=C\c3cccc(OC)c3)C(=O)N2NC(=O)Cc2ccccc2)cc1 (stereo unspecified) | > 100 µM (inactive) | > 100 µM (inactive) | > 100 µM (inactive) | > 100 µM (inactive) |  |  |  |  | 
CC(=O)NC1=C(NCCN(C)C)C(=O)c2ccccc2C1=O |  | 7.6 µM (inactive) | 14.3 µM (inactive) | 15 µM (inactive) | 16.4 µM (inactive) | 13.7 µM (inactive) | 18.9 µM (inactive) |  | 
Cc1nc2c(o1)/C(=N\c1ccccc1)c1ccccc1C2=O | 5.42 µM (inactive) | 1.86 µM (inactive) | 12.9 µM (inactive) | 11.9 µM (inactive) | 17.4 µM (inactive) | 4.02 µM (inactive) | 6.81 µM (inactive) | 3.3 µM (inactive) | 
O=C(c1ccccc1)N1CCN2CCN=C(c3ccccc3)C21c1ccccc1 (stereo unspecified) | > 100 µM (inactive) | 81.7 µM (inactive) | 91 µM (inactive) | 97.9 µM (inactive) | 70.6 µM (inactive) |  | > 100 µM (inactive) | 30.5 µM (inactive) | 
COc1cc([C@H]2c3cc4c(cc3[C@H](NCc3ccc(F)cc3)C3COC(=O)[C@H]32)OCO4)cc(OC)c1O (stereo partly specified) | 26.3 µM (inactive) | 7.59 µM (inactive) | 7.03 µM (inactive) | 16.3 µM (inactive) | 3.56 µM (inactive) | 2.37 µM (inactive) | 24.7 µM (inactive) | 3.37 µM (inactive) | 2.32 µM (inactive)
O=C(/C=C(\O)C(=O)O)/C=C(\O)c1ccc(Cl)cc1 | > 100 µM (inactive) | > 100 µM (inactive) | > 100 µM (inactive) | > 100 µM (inactive) | > 100 µM (inactive) | > 100 µM (inactive) | > 100 µM (inactive) | > 100 µM (inactive) | 
Cc1cc(N(CCC#N)CCC#N)ccc1/N=N/c1ccc(Br)cc1 | > 35 µM (inactive) | > 53.3 µM (inactive) | > 42.7 µM (inactive) | > 48.8 µM (inactive) | 3.61 µM (inactive) | 2.22 µM (inactive) | 17.7 µM (inactive) | 20.2 µM (inactive) | 11.1 µM (inactive)
O=P(CN1CCOCC1)(c1ccccc1)c1ccccc1 |  | > 100 µM (inactive) |  | > 100 µM (inactive) |  | > 100 µM (inactive) | > 100 µM (inactive) | > 100 µM (inactive) | > 100 µM (inactive)
O=[N+]([O-])c1ccc(Sc2c3ccccc3nc3ccccc23)cc1 | > 100 µM (inactive) | > 100 µM (inactive) | > 100 µM (inactive) | > 100 µM (inactive) | > 100 µM (inactive) | > 100 µM (inactive) | > 100 µM (inactive) |  | > 100 µM (inactive)
O=C1c2c(O)cccc2C(C(=O)CCCCCC(=O)C2c3cccc(O)c3C(=O)c3c(O)cccc32)c2cccc(O)c21 | 1.16 µM (inactive) | 0.857 µM (active) | 1.12 µM (inactive) | 0.697 µM (active) | 5.51 µM (inactive) | 0.46 µM (active) | 0.681 µM (active) | 0.512 µM (active) | 1.26 µM (inactive)
CN(C)c1ccc(/C=C2\CCc3ccccc3C2=O)cc1Br | > 100 µM (inactive) | 49.4 µM (inactive) | 55.5 µM (inactive) | 48.3 µM (inactive) | 21.6 µM (inactive) | 94.6 µM (inactive) | 39.4 µM (inactive) |  | 
COC(=O)C(=O)C(C(=O)C=C(C)C)C(=O)C(=O)Nc1cc(C(F)(F)F)ccc1Cl (stereo unspecified) | > 100 µM (inactive) |  | > 100 µM (inactive) | > 100 µM (inactive) | > 100 µM (inactive) | > 100 µM (inactive) | > 100 µM (inactive) | > 100 µM (inactive) | > 100 µM (inactive)
CC1=Nc2ccccc2NC(c2ccoc2)C1 (stereo unspecified) | > 100 µM (inactive) | > 100 µM (inactive) | > 100 µM (inactive) | > 100 µM (inactive) | > 100 µM (inactive) |  | > 100 µM (inactive) | > 100 µM (inactive) | > 100 µM (inactive)
Cc1c2n(c(=O)[nH]c1=O)C1OC(CO)C(O2)C1N=[N+]=[N-] (stereo unspecified) |  | > 100 µM (inactive) | > 100 µM (inactive) | > 100 µM (inactive) | > 100 µM (inactive) |  | > 100 µM (inactive) | > 100 µM (inactive) | 
CCc1cc(C(=O)OC)cn1C(=N)c1ccc(Cl)cc1 | > 100 µM (inactive) | > 100 µM (inactive) | > 100 µM (inactive) | > 100 µM (inactive) | > 100 µM (inactive) | > 100 µM (inactive) | > 100 µM (inactive) | > 100 µM (inactive) | 
CCCCCCCCOCC(COC(=O)CCCCCCC)OC(=O)CCCCCCC (stereo unspecified) | > 100 µM (inactive) | > 100 µM (inactive) | > 100 µM (inactive) | > 100 µM (inactive) | > 100 µM (inactive) |  |  | > 100 µM (inactive) | > 100 µM (inactive)
Cc1cnc2c(C)ccc([N+](=O)[O-])c2c1NCCCN(C)C |  | > 100 µM (inactive) |  |  | > 100 µM (inactive) |  | 43.7 µM (inactive) | > 100 µM (inactive) | 
COc1ccc2nc3cc(Cl)ccc3c(NCCCN(CCCl)CCCl)c2c1 | 2.64 µM (inactive) | 0.0443 µM (active) | 0.233 µM (active) | 0.0166 µM (active) | 0.0339 µM (active) | < 0.01 µM (active) | 0.0845 µM (active) | < 0.01 µM (active) | 0.0118 µM (active)
CC1=CCC(O)C=CC(C)C(O)C(C)C=C(C)C(=O)c2c(O)c(C)cc3c2C(=O)C(N)=C(NC(=O)/C=C\C=C/C=CC(C)C(O)CC1=O)C3=O (stereo unspecified) |  | > 100 µM (inactive) | > 100 µM (inactive) | 27.8 µM (inactive) | > 100 µM (inactive) | > 100 µM (inactive) | 17.3 µM (inactive) | > 100 µM (inactive) | 
COC1=C2C[C@H](O)C(C)C[C@@]2(OC)OC1=O (stereo partly specified) |  | > 100 µM (inactive) | > 100 µM (inactive) | > 100 µM (inactive) |  | > 100 µM (inactive) | > 100 µM (inactive) |  | > 100 µM (inactive)
COc1c(C)cc(O)cc1C=O |  | > 100 µM (inactive) | > 100 µM (inactive) | > 100 µM (inactive) |  |  | > 100 µM (inactive) | > 100 µM (inactive) | > 100 µM (inactive)
O=[N+]([O-])c1cccc(C2=NOC(C3CCCCC3)C2)c1 (stereo unspecified) | > 100 µM (inactive) | > 100 µM (inactive) | > 100 µM (inactive) | > 100 µM (inactive) |  |  | > 100 µM (inactive) | > 100 µM (inactive) | > 100 µM (inactive)
COC(=O)c1c(C(=O)OC)c2cc(C(=O)c3ccccc3)ccn2c1Cl |  | 32.5 µM (inactive) |  | 30 µM (inactive) | 55 µM (inactive) | 24.3 µM (inactive) | 50.9 µM (inactive) | 23.5 µM (inactive) | 
CCN(CC)C(=O)CNC(=O)OC(C)(C)C |  | > 100 µM (inactive) | > 100 µM (inactive) |  | > 100 µM (inactive) |  | > 100 µM (inactive) | > 100 µM (inactive) | 
O=C1c2ccccc2C(=O)C1(Cl)C1(S(=O)(=O)O)c2ccccc2-c2ccccc21 | > 100 µM (inactive) | > 100 µM (inactive) | > 100 µM (inactive) | > 100 µM (inactive) | > 100 µM (inactive) | > 100 µM (inactive) | > 100 µM (inactive) | > 100 µM (inactive) | 
